Series [1] is described as follows: Inhibition of [3H]diltiazem binding to L-type calcium channel of rabbit skeletal muscle at 5 uM. The series is classed as functional. As to conditions: Oryctolagus cuniculus, Muscle tissue.
A further series addresses Substance-P receptor (Homo sapiens, UniProt P25103). As to the kind of experiment: Displacement of [125I]- Substance P from human Neurokinin 1 (hNK1) receptor expressed in CHO cells. The series is classed as cell-based.
The next series deals with T1, Substance-K receptor (Homo sapiens, UniProt P21452).
T1 sequence (P21452 whole entry): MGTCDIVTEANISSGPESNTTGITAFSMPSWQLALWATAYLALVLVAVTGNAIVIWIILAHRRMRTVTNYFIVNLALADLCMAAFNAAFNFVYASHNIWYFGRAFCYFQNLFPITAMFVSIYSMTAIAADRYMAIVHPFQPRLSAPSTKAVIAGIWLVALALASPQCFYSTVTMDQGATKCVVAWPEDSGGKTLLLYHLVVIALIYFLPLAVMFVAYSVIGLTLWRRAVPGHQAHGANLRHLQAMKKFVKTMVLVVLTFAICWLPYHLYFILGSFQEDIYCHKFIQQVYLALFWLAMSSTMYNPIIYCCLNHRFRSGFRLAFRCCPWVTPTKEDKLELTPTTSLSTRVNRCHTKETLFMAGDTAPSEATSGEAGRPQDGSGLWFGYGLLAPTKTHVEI
The series can be described thus: Tested for inhibition of human Neurokinin Tachykinin receptor 2.

Series [2] can be described thus: Inhibition of [3H]diltiazem binding to L-type calcium channel of rabbit skeletal muscle. It is filed as functional, tissue-based, Oryctolagus cuniculus, Muscle tissue.
The next series addresses T2, Neuromedin-K receptor (Homo sapiens, UniProt P29371).
T2 sequence (P29371 whole entry): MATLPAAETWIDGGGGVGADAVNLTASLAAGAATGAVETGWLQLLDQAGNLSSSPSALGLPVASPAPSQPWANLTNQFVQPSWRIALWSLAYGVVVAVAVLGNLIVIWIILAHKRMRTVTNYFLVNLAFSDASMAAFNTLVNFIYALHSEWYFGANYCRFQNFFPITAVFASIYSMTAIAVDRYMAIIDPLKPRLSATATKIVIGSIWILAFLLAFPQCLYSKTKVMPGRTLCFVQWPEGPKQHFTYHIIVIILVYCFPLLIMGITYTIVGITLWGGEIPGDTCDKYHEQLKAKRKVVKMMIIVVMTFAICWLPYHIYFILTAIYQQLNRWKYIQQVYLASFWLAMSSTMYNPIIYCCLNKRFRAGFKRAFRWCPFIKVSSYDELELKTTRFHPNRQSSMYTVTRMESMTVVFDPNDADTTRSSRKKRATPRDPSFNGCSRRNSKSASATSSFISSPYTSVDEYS
The series can be described thus: Tested for inhibition of human Tachykinin receptor 3.

A short description of series [3]: pKa value of the compound. It is filed as physicochemical.
A short description of series [4]: Inhibition of [3H]diltiazem binding to L-type calcium channel of rabbit skeletal muscle at 30 uM. As to conditions: Oryctolagus cuniculus, Muscle tissue. It is filed as functional.

From ChEMBL document CHEMBL1128634, “Piperidine-ether based hNK1 antagonists 2: Investigation of the effect of N-substitution” (Bioorg Med Chem Lett, 1995) come the findings set out here.

Bounds are passed on as bounds.

Substance-P receptor, sequence (P25103 whole entry): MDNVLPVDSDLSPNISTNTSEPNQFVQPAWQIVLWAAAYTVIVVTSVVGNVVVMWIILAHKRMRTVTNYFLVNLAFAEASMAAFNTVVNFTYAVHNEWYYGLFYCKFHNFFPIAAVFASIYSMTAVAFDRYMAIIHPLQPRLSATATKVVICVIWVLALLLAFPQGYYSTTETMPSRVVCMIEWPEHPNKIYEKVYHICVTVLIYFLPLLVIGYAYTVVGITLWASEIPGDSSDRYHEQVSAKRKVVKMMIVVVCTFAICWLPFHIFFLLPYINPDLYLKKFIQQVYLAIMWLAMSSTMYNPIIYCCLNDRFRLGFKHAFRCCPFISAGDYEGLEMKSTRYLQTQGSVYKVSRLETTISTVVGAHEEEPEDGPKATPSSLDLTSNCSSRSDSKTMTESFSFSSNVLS

With `CC(=O)N1CCC[C@H](OCc2cc(C(F)(F)F)cc(C(F)(F)F)c2)[C@@H]1c1ccccc1`, the inhibition at 5 µM in series [1] was 0%. As for `COc1ccccc1CN[C@H]1CCCN(CC(N)=O)[C@H]1c1ccccc1` (racemic), the IC50 on Substance-P receptor was determined as 0.227 µM.

For the compound `O=C(O)CN1CCC[C@H](OCc2cc(C(F)(F)F)cc(C(F)(F)F)c2)[C@@H]1c1ccccc1`, in series [1], the inhibition at 5 µM was determined as 7%. With `FC(F)(F)c1cc(CO[C@H]2CCCN[C@H]2c2ccccc2)cc(C(F)(F)F)c1`, the IC50 at Substance-K receptor was > 1 µM; in series [2], 0.76 µM; against Neuromedin-K receptor, > 1 µM; on Substance-P receptor, 0.00087 µM. For the compound `CNC(=O)CN1CCC[C@H](OCc2cc(C(F)(F)F)cc(C(F)(F)F)c2)[C@@H]1c1ccccc1`, the inhibition at 5 µM in series [1] was 0%. The same measure, in the same setting: then `CN(C)C(=O)CN1CCC[C@H](OCc2cc(C(F)(F)F)cc(C(F)(F)F)c2)[C@@H]1c1ccccc1`, with 0%.

As for `CN1CCC[C@H](OCc2cc(C(F)(F)F)cc(C(F)(F)F)c2)[C@@H]1c1ccccc1`, the IC50 in series [2] stood at 0.72 µM. Turning to `COC(=O)C(=O)N1CCC[C@H](OCc2cc(C(F)(F)F)cc(C(F)(F)F)c2)[C@@H]1c1ccccc1`, in series [1], the inhibition at 5 µM was determined as 0%. As to `FC(F)(F)c1cc(CO[C@H]2CCCN(Cc3ccccc3)[C@H]2c2ccccc2)cc(C(F)(F)F)c1`, the IC50 in series [2] stood at 0.0041 µM.

On to `NC(=O)CCN1CCC[C@H](OCc2cc(C(F)(F)F)cc(C(F)(F)F)c2)[C@@H]1c1ccccc1`, for which the pKa in series [3] came out at 6.5. In series [1], the inhibition at 5 µM turned out to be 98%. With `NC(=O)C(=O)N1CCC[C@H](OCc2cc(C(F)(F)F)cc(C(F)(F)F)c2)[C@@H]1c1ccccc1`, the inhibition at 5 µM in series [1] worked out at 0%. The compound further had an IC50 at Substance-P receptor of 0.025 µM. Take `NC(=O)CCCN1CCC[C@H](OCc2cc(C(F)(F)F)cc(C(F)(F)F)c2)[C@@H]1c1ccccc1`: the inhibition at 5 µM in series [1] is 98%. With `COC(=O)CN1CCC[C@H](OCc2cc(C(F)(F)F)cc(C(F)(F)F)c2)[C@@H]1c1ccccc1`, in series [2], the IC50 was 0.026 µM. The compound `NC(=O)CN1CCC[C@H](OCc2cc(C(F)(F)F)cc(C(F)(F)F)c2)[C@@H]1c1ccccc1` registered a pKa in series [3] of 5.4. Besides, the inhibition at 30 µM in series [4] came to 16%.

What is called inhibition is the relative decrease from the control value, in per cent. By IC50 is commonly meant the point on the concentration scale where inhibition reaches its midpoint. As a reminder, the pKa is the negative logarithm of the acid dissociation constant.
